The assay in a line: Inhibition of baker's yeast alpha-glucosidase preincubated for 15 to 20 mins followed by p-nitrophenyl-alpha-D-glucopyranoside substrate addition measured after 45 to 60 mins by spectrophotometric method. Details: species or system Saccharomyces cerevisiae.

These results are taken from ChEMBL document CHEMBL4261528, “Synthesis, molecular modeling and biological evaluation of aza-flavanones as α-glucosidase inhibitors” (Medchemcomm, 2017).

As usually defined, the IC50 is the concentration needed to halve the response being measured.

For the compound `C[C@H]1O[C@H](O[C@H]2[C@H](O)[C@@H](O)[C@@H](O[C@H]3[C@H](O)[C@@H](O)C(O)O[C@@H]3CO)O[C@@H]2CO)[C@H](O)[C@@H](O)[C@@H]1N[C@H]1C=C(CO)[C@@H](O)[C@H](O)[C@H]1O` (some centres not stated) [ACARBOSE], the IC50 (read-out: IC50) came to 360 µM.
Still for that read-out and setting: to `O=C1CC(c2cccs2)Nc2ccccc21` (configuration not stated) belongs 382 µM; to `O=C1CC(c2ccc(F)cc2F)Nc2ccccc21` (configuration not stated), 211 µM.
On to `O=C1CC(c2ccc(C(F)(F)F)cc2)Nc2ccccc21` (configuration not stated), for which the IC50 (read-out: IC50) was found to be 53.5 µM.
As to `CCC1CC(=O)c2ccccc2N1` (configuration not stated), under “read-out: IC50”, the IC50 amounted to 272 µM.
As to `O=C1CC(c2ccncc2)Nc2ccccc21` (configuration not stated), the IC50 (read-out: IC50) came out at 773 µM.
On to `O=C1CC(C2CCCCC2)Nc2ccccc21` (configuration not stated), for which the IC50 (read-out: IC50) turned out to be 494 µM.
Same read-out and setting: to `COc1ccc(C2CC(=O)c3ccccc3N2)cc1` (configuration not stated) belongs 303 µM; to `O=C1CC(C2CCCO2)Nc2ccccc21` (configuration not stated), 667 µM; to `OCC(CO)N[C@H]1C[C@](O)(CO)[C@@H](O)[C@H](O)[C@H]1O` [VOGLIBOSE], 325 µM.
On the same count and under the same terms, under `O=C1CC(c2ccccc2)Nc2ccccc21` (configuration not stated) [Aza-flavanone] stands 686 µM.
Same read-out and setting: to `O=C1CC(C2CCOC2)Nc2ccccc21` (configuration not stated) belongs 867 µM; to `O=C1CC(c2ccco2)Nc2ccccc21` (configuration not stated), 487 µM; to `O=C1CC(c2ccoc2)Nc2ccccc21` (configuration not stated), 352 µM.
As to `OCCN1C[C@H](O)[C@@H](O)[C@H](O)[C@H]1CO` [MIGLITOL], the IC50 (read-out: IC50) is 462 µM.
As to `CCCC1CC(=O)c2ccccc2N1` (configuration not stated), the IC50 (read-out: IC50) was determined as 190 µM.
On the same count and under the same terms, under `Cc1ccc(C2CC(=O)c3ccccc3N2)cc1C` (configuration not stated) stands 606 µM; under `O=C1CC(c2ccsc2)Nc2ccccc21` (configuration not stated), 72.4 µM.
On the same count and under the same terms, under `O=C1CC(C2CC2)Nc2ccccc21` (configuration not stated) stands 284 µM; under `CCCCC1CC(=O)c2ccc(F)cc2N1` (configuration not stated), 134 µM.
Turning to `O=C1CC(c2ccc(Br)cc2)Nc2ccccc21` (configuration not stated), the IC50 result is reported as “Nd(Insoluble)”.
Take `CCCCC1CC(=O)c2cc(OC)ccc2N1` (configuration not stated): under “read-out: IC50”, the IC50 was 683 µM.
